Common to all, as to details: 0.0630 kg/ha
One assay has as its system Corn, Field, Zea mays. The assay can be described thus: Postemergence herbicidal evaluation, ZEAMX. It is filed as in vivo, L. The protocol:
(§1) In the tests, seedling plants are grown in jiffy flats for about two weeks. The test compounds are dispersed in 50/50 acetone/water mixtures containing 0.5% TWEEN®20, a polyoxyethylene sorbitan monolaurate surfactant of Atlas Chemical Industries, in sufficient quantities to provide the equivalent of about 0.0157 kg to 0.500 kg per hectare of active compound when applied to the plants through a spray nozzle operating at 40 psi for a predetermined time. After spraying, the plants are placed on greenhouse benches and are cared for in accordance with conventional greenhouse procedures. From four to five weeks after treatment, the seedling plants are examined and rated according to the rating system set forth below. Where more than one test is involved for a given compound, the data are averaged.
(§2) Results of herbicide evaluation are expressed on a rating scale (0-9). The scale is based upon a visual observation of plant stand, vigor, malformation, size, chlorosis and overall plant appearance as compared with a control.

For assay [1], the system named is Foxtail, Green, Setaria viridis. In words: Postemergence herbicidal evaluation, SETVI. The class given is in vivo, (L.) Beau. The method, then: as §1, §2
In assay [2] the test system is Lambsquarters, Common, Chenopodium album. The assay can be described thus: Postemergence herbicidal evaluation, CHEAL. The class given is in vivo, L. The method, then:
as §1, §2

Assay [3] has as its system Sicklepod, Cassia obtusifolia. The assay can be described thus: Postemergence herbicidal evaluation, CASOB. It is filed as in vivo, L. The protocol: as §1, §2
The test system of assay [4] is Barnyardgrass, Echinochloa crus-galli. In words: Postemergence herbicidal evaluation, ECHCG. The class given is in vivo, (L.) Beau. The protocol:
as §1, §2

The subject of the next assay is Galium, Galium aparine. The assay can be described thus: Postemergence herbicidal evaluation, GALAP. The class given is in vivo. The method, then:
as §1, §2

The test system of assay [5] is Soybean, Williams, Glycine max. In words: Postemergence herbicidal evaluation, GLXMAW. The class given is in vivo, (L.) Merr. cv Williams. The method, then:
as §1, §2

For assay [6], the system named is Velvetleaf, Abutilon theophrasti. In words: Postemergence herbicidal evaluation, ABUTH. It is filed as in vivo, Medic. The method, then: as §1, §2
Assay [7] concerns Wheat, Winter, cv Riband, Triticum aestivum. In words: Postemergence herbicidal evaluation, TRZAWR. It is filed as in vivo. The protocol:
as §1, §2

The test system of assay [8] is Ragweed, Common, Ambrosia artemisifolia. In words: Postemergence herbicidal evaluation, AMBEL. The class given is in vivo, L. The method, then: as §1, §2
The subject of assay [9] is Morningglory, Ivyleaf, Ipomoea hederacea. In words: Postemergence herbicidal evaluation, IPOHE. It is filed as in vivo, (L.) Jacq. The protocol:
as §1, §2

Assay [10] deals with Rice, Tebonnet, Oryza sativa. The assay can be described thus: Postemergence herbicidal evaluation, ORYSAT. The class given is in vivo, (L.) Tebonnet. The protocol: as §1, §2

As for `COCc1nsc2ccc(-n3c(=O)cc(C(F)(F)F)n(C)c3=O)cc12` [Compound 31, 3-[3-(Methoxymethyl)-1,2-benzisothiazol-5-yl]-1-methyl-6-(trifluoromethyl)-2,4 (1H,3H)-pyrimidinedione], the “herbicide rating (0-9)” value in the assay on Corn, Field, Zea mays came to 6.0; in [1] it was 9.0; in assay [2], 9.0; in [3] it was 9.0; in assay [4], 4.0; in the assay with Galium, Galium aparine, 8.0. Further, the “herbicide rating (0-9)” value is listed as 9.0 in assay [5]; 9.0 in assay [6]; 3.0 in assay [7]; 9.0 in assay [8]; 9.0 in assay [9]; 3.0 in [10].

For `CC(=O)OCc1nsc2ccc(-n3c(=O)cc(C(F)(F)F)n(C)c3=O)cc12` [Compound 32, 3-[3-(Hydroxymethyl)-1,2-benzisothiazol-5-yl]-1-methyl-6-(trifluoromethyl)-2,4(1H,3H)-pyrimidinedione,acetate ester], the “herbicide rating (0-9)” value in the assay on Corn, Field, Zea mays is reported as 5.5; in assay [1] it was 5.0; in assay [2], 9.0; in [3], 4.0; in assay [4], 2.0; in the assay on Galium, Galium aparine, 7.0. Also, the “herbicide rating (0-9)” value in assay [5] turned out to be 5.5; in assay [6], 9.0; in assay [7], 2.0; in [8], 9.0; in [9], 9.0; in assay [10] it was 1.0.

As for `COC(=O)C(C)Oc1ccc(C)cc1-c1nsc2ccc(-n3c(=S)cc(C(F)(F)F)n(C)c3=O)cc12` (stereo not drawn) [Compound 33, Methyl 2-{{2-{5-[3,6-dihydro-3-methyl-2-oxo-6-thioxo-4-(trifluoromethyl)-1(2H)-pyrimidinyl]-1,2-benzisothiazol-3-yl}-p-tolyl}oxy}propionate], the “herbicide rating (0-9)” value in the assay with Corn, Field, Zea mays worked out at 8.5; in assay [1], 9.0; in assay [2], 9.0; in assay [3] it was 8.0; in assay [4], 9.0; in the assay on Galium, Galium aparine it was 9.0. In addition, the “herbicide rating (0-9)” value in assay [5] is 6.0; in assay [6], 9.0; in [7], 8.5; in assay [8] it was 9.0; in assay [9] it was 9.0; in assay [10] it was 7.5.

With `COc1cc(C)c(C)c(C)c1-c1nsc2ccc(-n3c(=O)cc(C(F)(F)F)n(C)c3=O)cc12` [Compound 34, 3-[3-(6-Methoxy-2,3,4-trimethylphenyl)-1,2-benzisothiazol-5-yl]-1-methyl-6-(trifluoromethyl)-2,4(1H,3H)-pyrimidinedione], the “herbicide rating (0-9)” value with Corn, Field, Zea mays was determined as 4.0; in [1], 7.0; in [2] it was 4.0; in assay [3], 0.0; in [4], 1.0; with Galium, Galium aparine, 0.0. The “herbicide rating (0-9)” value amounted to 3.0 in assay [5]; 0.0 in [6]; 0.0 in assay [7]; 1.0 in [8]; 0.0 in [9]; 0.0 in assay [10].

Consider `Cn1c(C(F)(F)F)cc(=O)n(-c2ccc3snc(Br)c3c2)c1=O` [Compound 36, 3-(3-Bromo-1,2-benzisothiazol-5-yl)-1-methyl-6-(trifluoromethyl)-2,4(1H,3H)-pyrimidinedione], for which the “herbicide rating (0-9)” value is reported as 1.5 in the assay with Corn, Field, Zea mays; 9.0 in assay [1]; 0.0 in [2]; 0.0 in [3]; 1.0 in [4]; 0.0 with Galium, Galium aparine. Besides, the “herbicide rating (0-9)” value was 0.0 in assay [5]; 0.0 in [6]; 0.5 in [7]; 0.0 in [8]; 1.0 in assay [9]; 0.5 in assay [10].

Take `Cn1c(C(F)(F)F)cc(=O)n(-c2ccc3snc(Cl)c3c2)c1=O` [Compound 37, 3-(3-chloro-1,2-benzisothiazol-5-yl)-1-methyl-6-(trifluoromethyl)-2,4(1H,3H)-pyrimidinedione]: the “herbicide rating (0-9)” value with Corn, Field, Zea mays stood at 2.0; in assay [1], 0.0; in assay [2] it was 0.0; in [3] it was 0.0; in assay [4], 0.0; with Galium, Galium aparine, 0.0. Besides, the “herbicide rating (0-9)” value was determined as 1.5 in assay [5]; 1.0 in assay [6]; 0.5 in assay [7]; 0.0 in [8]; 1.0 in assay [9]; 0.5 in assay [10].

Regarding `Cc1ccc(OCC(=O)n2cnc3ccccc32)c(-c2nsc3ccc(-n4c(=O)cc(C(F)(F)F)n(C)c4=O)cc23)c1` [Compound 62], the “herbicide rating (0-9)” value in the assay with Corn, Field, Zea mays came to 7.0; in [1], 9.0; in assay [2] it was 9.0; in [3], 7.0; in assay [4], 9.0; in the assay on Galium, Galium aparine, 6.0. Besides, the “herbicide rating (0-9)” value amounted to 9.0 in assay [5]; 9.0 in [6]; 5.5 in [7]; 9.0 in assay [8]; 9.0 in assay [9]; 5.5 in assay [10].

`C=CCOc1ccc(C)cc1-c1nsc2ccc(-n3c(=O)cc(C(F)(F)F)n(C)c3=O)cc12` [Compound 65, 3-{3-[6-(Allyloxy)-m-tolyl)-1,2-benzisothiazol-5-yl}-1-methyl-6-(trifluoromethyl)-2,4(1H,3H)-pyrimidinedione]: the “herbicide rating (0-9)” value was found to be 5.5 with Corn, Field, Zea mays; 9.0 in assay [1]; 9.0 in [2]; 9.0 in [3]; 1.0 in assay [4]; 4.0 in the assay with Galium, Galium aparine. Besides, the “herbicide rating (0-9)” value in assay [5] is reported as 5.5; in [6], 9.0; in assay [7] it was 3.5; in assay [8] it was 9.0; in assay [9], 9.0; in assay [10], 1.5.

For `Cc1ccc(OCC(=O)OC(C)(C)C)c(-c2nsc3ccc(-n4c(=O)cc(C(F)(F)F)n(C)c4=O)cc23)c1` [Compound 68, tert-Butyl {{2-{5-[3,6-dihydro-3-methyl-2,6-dioxo-4-(trifluoromethyl)-1(2H)-pyrimidinyl]-1,2-benzisothiazol-3-yl}-p-tolyl}oxy}acetate], the “herbicide rating (0-9)” value in the assay with Corn, Field, Zea mays is on record as 5.0; in assay [1], 9.0; in assay [2], 9.0; in assay [3], 9.0; in assay [4], 5.0; in the assay on Galium, Galium aparine it was 2.0. For the same compound, the “herbicide rating (0-9)” value in assay [5] was 5.5; in [6], 6.0; in assay [7], 3.5; in assay [8] it was 5.0; in assay [9], 9.0; in assay [10], 2.0.

Turning to `C=CCOC(=O)COc1ccc(C)cc1-c1nsc2ccc(-n3c(=O)cc(C(F)(F)F)n(C)c3=O)cc12` [Compound 69, Allyl {{2-{5-[3,6-dihydro-3-methyl-2,6-dioxo-4-(trifluoromethyl)-1(2H)-pyrimidinyl]-1,2-benzisothiazol-3-yl}-p-tolyl}oxy}acetate], the “herbicide rating (0-9)” value in the assay with Corn, Field, Zea mays turned out to be 8.5; in assay [1], 9.0; in assay [2] it was 9.0; in assay [3] it was 9.0; in assay [4], 9.0; in the assay with Galium, Galium aparine, 9.0. For the same compound, the “herbicide rating (0-9)” value in assay [5] is listed as 9.0; in assay [6], 9.0; in [7], 8.0; in assay [8], 9.0; in [9], 9.0; in assay [10], 8.0.
